Results taken from patent US20230233555A1 (AbbVie Inc., priority 2022, published 2023).
“Also recorded” adds a separate entry of the source.

Tests used:
[1] = tested on: patients with rheumatoid arthritis; conditions: in vivo
Source text: (§2) Exposure adjusted incidence rates were adjusted by trial for all the adverse events reported in this section.
(§3) Patients 18 years of age and older were eligible to participate. The presence of at least 6 tender and 6 swollen joints and evidence of systemic inflammation based on elevation of hsCRP was required at baseline.

[2] = tested on: QTc interval; assay: Cardiac electrophysiology (QTc); format: in vivo, human
[3] = tested on: P-gp, BCRP, BSEP, OATP1B1, OATP1B3, OCT1, OCT2, OAT1, OAT3, MATE1, MATE2K; assay: In vitro transporter inhibition; format: in vitro ADME; conditions: clinically relevant concentrations
[4] = tested on: patients with rheumatoid arthritis; assay: Rheumatoid arthritis Phase 3 trials, integrated datasets (RA-I to RA-V)
Source text: as §2, §3

[5] = Population pharmacokinetic analyses; format: in vivo, human
Protocol: Renal clearance indicates some involvement of renal transporters in the excretion. Renal secretion is however not estimated to contribute to more than 25% of the elimination. […] As used herein, reference to “severe renal impairment” means a creatinine clearance of less than 30 mL/min.
The effect of different intrinsic factors has been evaluated in dedicated PK studies in renal and hepatic impairment and in Asian subjects, and by population pharmacokinetic analysis from the phase 2/3 studies. […] There are limited data in patients aged 75 years and older and there is no pharmacokinetic data in children and adolescents.

[6] = tested on: male and female rats; assay: Fertility study in rats; format: in vivo, rat
[7] = tested on: CYP1A2, 2B6, 2C8, 2C9, 2C18, 2C19, 2J2, FMO1, FMO3, OATP1B1, OATP1B3, OCT1; assay: In vitro substrate assessment, other enzymes and transporters; format: in vitro ADME
[8] = clinical; conditions: human, in vivo
[9] = Plasma protein binding and blood to plasma partitioning; format: in vitro ADME; conditions: human, read-out: Bound to plasma proteins (converted)
[10] = tested on: lactating female Sprague-Dawley rats; assay: Milk excretion in lactating rats; format: in vivo, rat; conditions: single oral 10 mg/kg radiolabeled
Source text: (§1) Drug exposure was approximately 30-fold greater in milk than in maternal plasma based on AUC0-t values. Approximately 97% of drug-related material in milk was parent drug.

[11] = Milk excretion in lactating rats; format: in vivo, rat; conditions: female, Sprague-Dawley, rat, milk (relative to maternal plasma); single oral 10 mg/kg radiolabeled, post-partum days 7-8; read-out: Drug exposure in milk vs maternal plasma (AUC0-t)
Source text: as §1

[12] = Model-estimated and predicted upadacitinib Cmax and AUCss in UC patients with co-administration of strong CYP3A4 inhibitors; set-up: species or system human; conditions: for Predicted Median Cmax in UC Patients with Strong CYP3A4 inhibitors based on results from M13-401: model-estimated value multiplied by 1.7; for Predicted AUCss in UC Patients with Strong CYP3A4 inhibitors based on results from M13-401, Median: model-estimated value multiplied by 1.75
Source text: The data from Study M13-401 are provided in Table 38 and Table 39, which show the expected increase in Cmax and AUCss, respectively, in patients with UC across all dose levels with co-administration of CYP3A4 inhibitors.

[13] = tested on: pregnant rabbits; assay: Oral embryo-fetal developmental study in rabbits; format: in vivo
[14] = tested on: patients with moderately to severely active rheumatoid arthritis, inadequate response to MTX; assay: Trial RA-II (NCT02706951); format: in vivo, human; conditions: RA-II through Week 14; 30 mg monotherapy
Source text: The primary endpoint was the proportion of patients who achieved an ACR20 response at Week 14. Key secondary endpoints included DAS28-CRP ≤3.2, DAS28-CRP <2.6, and change from baseline in HAQ-DI at Week 14.

[15] = tested on: rat bone marrow; assay: In vivo rat bone marrow micronucleus assay
[16] = tested on: CYP1A2, CYP2B6, CYP2C8, CYP2C9, CYP2C19, CYP2D6, CYP3A4; assay: In vitro CYP inhibition; format: in vitro ADME; conditions: clinically relevant concentrations
[17] = tested on: pregnant female rats; assay: Oral pre- and post-natal development study in rats; format: in vivo; conditions: GD 6 through lactation day 20, AUC basis, 10 mg/kg/day
[18] = Solubility in water; format: physicochemical; conditions: aqueous buffer, pH range of 2 to 9 at 37° C.
Source text: The strength of upadacitinib is based on anhydrous upadacitinib. […]

[19] = tested on: Sprague-Dawley rats; assay: Carcinogenicity study in Sprague-Dawley rats; format: in vivo, rat; conditions: for Exposure multiple at top dose without tumorigenicity: AUC basis
[20] = tested on: patients with moderately to severely active rheumatoid arthritis, naive to MTX; assay: Trial RA-I (NCT02706873); format: in vivo, human; conditions: RA-I through Week 24; 30 mg
Protocol: The primary endpoint was the proportion of patients who achieved an ACR50 response at Week 12. Key secondary endpoints included disease activity score (DAS28-CRP) ≤3.2 at Week 12, DAS28-CRP <2.6 at Week 24, change from baseline in HAQ-DI at Week 12, and change from baseline in van der Heijde-modified total Sharp Score (mTSS) at Week 24.
Inhibition of progression of structural joint damage was assessed using the modified Total Sharp Score (mTSS) and its components, the erosion score and joint space narrowing score, at Week 26 in Trial RA-IV and Week 24 in Trial RA-I. The proportion of patients with no radiographic progression (mTSS change from baseline […]) was also assessed.

[21] = 12-month exposure dataset (RA-I, II, III, V), 30 mg
[22] = MTX-controlled RA-I and RA-II, 12/14 weeks, 30 mg monotherapy
[23] = RA-III and RA-V placebo-controlled, 12 weeks, 30 mg

With `CC[C@@H]1CN(C(=O)NCC(F)(F)F)C[C@@H]1c1cnc2cnc3[nH]ccc3n12` [upadacitinib, (3S,4R)-3-Ethyl-4-(3H-imidazo[1,2-a]pyrrolo[2,3-e]pyrazin-8-yl)-N-(2,2,2-trifluoroethyl)pyrrolidine-1-carboxamide hydrate (2:1)] the “Hemoglobin decreases below 8 g/dL in at least one measurement, patients” value [1] was “none”, the “Lipid changes with treatment” value [1] was “dose-related increases in total cholesterol, triglycerides and LDL cholesterol” and the “Time of peak elevations in LDL and HDL cholesterol” value [1] was at most 8 Week. The “Effect on QTc interval” value ([2]; 2.5 times the mean exposure of the 45 mg once daily dose) was “no clinically relevant effect”, the “Effect on QTc interval” value ([2]; 6 times the mean maximum exposure of the 15 mg once daily dose) was “no clinically relevant effect” and the “Inhibition of transporters (P-gp, BCRP, OATP1B1, OATP1B3, OCT1, OCT2, OAT1, OAT3, MATE1, MATE2K)” value [3] was “does not inhibit; also recorded: no in vivo relevant inhibition”. For the same compound, the “Opportunistic infections (excluding tuberculosis), number of patients” value (“Opportunistic infections … of patients” below) [4, 21] was 15 patients, the “Opportunistic infections (excluding tuberculosis), rate” value (“Opportunistic infections … rate” below) [4, 21] was 1.4 per 100 patient-years and the “Active tuberculosis, number of patients” value ([4]; 12-month exposure dataset, 30 mg) was 1 patient. The “Opportunistic infections … of patients” value [4, 22] was 4 patients, the “Opportunistic infections … rate” value [4, 22] was 3.2 per 100 patient-years and the Active tuberculosis cases ([4]; RA MTX-controlled period, 30 mg monotherapy) was “no active cases”. The “Change in mean IgG and IgM levels from baseline” value ([4]; RA patients, controlled period) was “small decreases”, the “Change in mean ALC from baseline” value ([4]; RA patients, up to Week 36) was “small, transient increase” and the Active tuberculosis cases ([4]; RA placebo-controlled period, 30 mg) was “no active cases”. The “Opportunistic infections … of patients” value [4, 23] was 6 patients, the “Opportunistic infections … rate” value [4, 23] was 7.1 per 100 patient-years and the “Plasma exposure, adolescent / pediatric (12 years and older, at least 40 kg) vs adult subjects” value ([5]; atopic dermatitis studies) was “similar; also recorded: No meaningful difference”. The “Age as covariate on CL/F and Vc/F” value ([5]; continuous and discrete (adolescents ≥40 kg vs adults)) was “not found to be statistically significant”, the “Effect of pH modifying medications (antacids, proton pump inhibitors) on plasma exposures” value ([5]; in vitro assessments and population PK analyses) was “not expected to affect” and the “Effect of body weight, gender, race, ethnicity, age on upadacitinib pharmacokinetics / exposure” value ([5]; in vivo) was “no relevant effects; also recorded: did not have a clinically meaningful effect”. The “Pharmacokinetics in geriatric patients (>65 years) vs younger adults” value ([5]; in vivo) was “No clinically meaningful differences”, the “Effect of CYP2D6 metabolic phenotype (extensive vs poor metabolizers) on upadacitinib CL/F, pharmacokinetics” value ([5]; population PK analysis) was “comparability; also recorded: no effect” and the “Exposure multiple with viable embryos unaffected” value ([6]; 5 mg/kg/day, AUC basis) was “approximately 1.0 times the MRHD of 30 mg”. The “Exposure multiple with adverse effect on maintenance of pregnancy” value ([6]; 25 mg/kg/day, AUC basis) was “approximately 13 times the MRHD of 30 mg”, the “Exposure multiple with adverse effect on maintenance of pregnancy” value ([6]; 75 mg/kg/day, AUC basis) was ~48 times the MRHD of 30 mg and the “Exposure multiple without effect on fertility” value ([6]; female rats, 75 mg/kg/day, AUC basis) was ~48 times the MRHD of 30 mg. The “Number of viable embryos” value ([6]; females 5 mg/kg/day mated to males at the same dose) was “unaffected”, the “Exposure multiple without effect on fertility” value ([6]; male rats, 50 mg/kg/day, AUC basis) was “approximately 24 times the MRHD of 30 mg” and the “Maintenance of pregnancy (post-implantation losses, viable embryos per litter)” value ([6]; oral 25 and 75 mg/kg/day) was “adversely affected”. For the same compound, the Fertility ([6]; oral up to 50 mg/kg/day males, 75 mg/kg/day females) was “no effect on fertility”, the “Substrate of CYP1A2, 2B6, 2C8, 2C9, 2C18, 2C19, 2J2, FMO1, FMO3, OATP1B1, OATP1B3 or OCT1” value [7] was “not a substrate” and the half-life [8] was 480 to 840 min. For the same compound, the Tmax ([8]; po) was 2 to 4 h, the fraction unbound [9] was 0.48 and the “Parent drug share of drug-related material in milk” value [10] was “Approximately 97%”. For the same compound, the Kp [11] was about 30, the “Predicted Median Cmax in UC Patients with Strong CYP3A4 inhibitors based on results from M13-401” value ([12]; 7.5 mg treatment group) was 34.3 ng/mL and the “Predicted AUCss in UC Patients with Strong CYP3A4 inhibitors based on results from M13-401, Median” value ([12]; 7.5 mg treatment group) was 282 ng·h/mL. The “Predicted Median Cmax in UC Patients with Strong CYP3A4 inhibitors based on results from M13-401” value ([12]; 15 mg treatment group) was 70.2 ng/mL, the “Predicted AUCss in UC Patients with Strong CYP3A4 inhibitors based on results from M13-401, Median” value ([12]; 15 mg treatment group) was 599 ng·h/mL and the “Predicted Median Cmax in UC Patients with Strong CYP3A4 inhibitors based on results from M13-401” value ([12]; 30 mg treatment group) was 133 ng/mL. For the same compound, the “Predicted AUCss in UC Patients with Strong CYP3A4 inhibitors based on results from M13-401, Median” value ([12]; 30 mg treatment group) was 1143 ng·h/mL, the “Predicted Median Cmax in UC Patients with Strong CYP3A4 inhibitors based on results from M13-401” value ([12]; 45 mg treatment group) was 206 ng/mL and the “Predicted AUCss in UC Patients with Strong CYP3A4 inhibitors based on results from M13-401, Median” value ([12]; 45 mg treatment group) was 1740 ng·h/mL. For the same compound, the “Exposure multiple with developmental toxicity (cardiovascular malformations, post-implantation loss, decreased fetal body weights)” value [13] was at least 17 times the 15 mg dose, the “Exposure multiple with no developmental toxicity” value ([13]; organogenesis) was about 2.5 times the 15 mg dose and the “Venous thrombosis, number of patients” value [14] was 0 patients. The “Genotoxicity, bone marrow micronucleus” value [15] was “tested negatively”, the “Inhibition (or induction) of CYP1A2, 2B6, 2C8, 2C9, 2C19, 2D6, 3A4” value [16] was “does not inhibit or induce; also recorded: no in vivo relevant inhibition” and the “Exposure multiple with no maternal or developmental toxicity” value [17] was “approximately 1.6 times the MRHD of 30 mg”. The solubility [18] was at most 38 mg/mL, the “Exposure multiple at top dose without tumorigenicity” value ([19]; female rats, 20 mg/kg/day) was ~6.0 times the MRHD of 30 mg and the “Exposure multiple at top dose without tumorigenicity” value ([19]; male rats, 15 mg/kg/day) was “approximately 2.4 times the MRHD of 30 mg”. The Tumorigenicity ([19]; up to 101 weeks, oral up to 15 (male) or 20 (female) mg/kg/day) was “No evidence of tumorigenicity”, the “Arterial thrombosis, number of patients” value [20] was 1 patient and the “Venous thrombosis, number of patients” value [20] was 1 patient.
